# Data: ChEMBL document CHEMBL1697692, “Developing structure-activity relationships for the prediction of hepatotoxicity” (Chem Res Toxicol, 2010)
# Tested on: Hepatotoxicity
# Assay: Literature-mined public compounds from Greene et al multi-species hepatotoxicity modelling dataset
row,Compound,Hepatotoxicity
1,Nc1c2c(nc3ccccc13)CCCC2 [TACRINE],AH: Evidence for animal hepatotoxicity but not tested in humans
2,Nc1nc2ccc(OC(F)(F)F)cc2s1 [RILUZOLE],HH: Evidence of human hepatotoxicity
3,O=c1[nH]c(=O)n([C@H]2C[C@H](O)[C@@H](CO)O2)cc1I [IDOXURIDINE],HH: Evidence of human hepatotoxicity
4,CNCC[C@@H](Oc1ccccc1C)c1ccccc1 [ATOMOXETINE],HH: Evidence of human hepatotoxicity
5,CCCc1nc2c(C)cc(-c3nc4ccccc4n3C)cc2n1Cc1ccc(-c2ccccc2C(=O)O)cc1,WE: Weak evidence (<10 case reports) of human hepatotoxicity
6,CCC1(c2ccccc2)CCC(=O)NC1=O (configuration not stated) [GLUTETHIMIDE],HH: Evidence of human hepatotoxicity
7,DICHROMATE,AH: Evidence for animal hepatotoxicity but not tested in humans
8,Clc1ccc(COC(Cn2ccnc2)c2ccc(Cl)cc2Cl)cc1.O=[N+]([O-])O (configuration not stated) [ECONAZOLE NITRATE],NE: No evidence of hepatotoxicity in any species
9,CC(C)(C)NC[C@H](O)COc1nsnc1N1CCOCC1.O=C(O)/C=C\C(=O)O [TIMOLOL MALEATE],HH: Evidence of human hepatotoxicity
10,AURANOFIN,HH: Evidence of human hepatotoxicity
11,Sc1ncnc2nc[nH]c12 [MERCAPTOPURINE ANHYDROUS],HH: Evidence of human hepatotoxicity
12,CCCCCOC(=O)c1ccccc1C(=O)OCCCCC,AH: Evidence for animal hepatotoxicity but not tested in humans
13,CNNCc1ccc(C(=O)NC(C)C)cc1.Cl [PROCARBAZINE HYDROCHLORIDE],HH: Evidence of human hepatotoxicity
14,Nc1ccn([C@H]2CC[C@@H](CO)O2)c(=O)n1 [ZALCITABINE],NE: No evidence of hepatotoxicity in any species
15,Cl.Nc1cc(Cl)cc(Cl)c1,NE: No evidence of hepatotoxicity in any species
16,CN(CCCCCCCCCCN(C)C(=O)Oc1cccc([N+](C)(C)C)c1)C(=O)Oc1cccc([N+](C)(C)C)c1.[Br-].[Br-] [DEMECARIUM BROMIDE],HH: Evidence of human hepatotoxicity
17,CC(C)COCC(CN(Cc1ccccc1)c1ccccc1)N1CCCC1.Cl.O (configuration not stated) [BEPRIDIL HYDROCHLORIDE],HH: Evidence of human hepatotoxicity
18,Cc1cccc(Nc2ccccc2C(=O)O)c1C [MEFENAMIC ACID],HH: Evidence of human hepatotoxicity
19,O=c1[nH]cc(F)c(=O)[nH]1 [FLUOROURACIL],HH: Evidence of human hepatotoxicity
20,Cc1ncc(CO)c(CO)c1O [PYRIDOXINE],NE: No evidence of hepatotoxicity in any species
21,Cn1cnc([N+](=O)[O-])c1Sc1ncnc2nc[nH]c12 [AZATHIOPRINE],HH: Evidence of human hepatotoxicity
22,CC(=O)[C@]1(O)Cc2c(O)c3c(c(O)c2[C@@H](O[C@H]2C[C@H](N)[C@H](O)[C@H](C)O2)C1)C(=O)c1ccccc1C3=O.Cl [IDARUBICIN HYDROCHLORIDE],NE: No evidence of hepatotoxicity in any species
23,CC(C)NCC(O)c1ccc(O)c(O)c1.Cl (configuration not stated) [ISOPROTERENOL HYDROCHLORIDE],NE: No evidence of hepatotoxicity in any species
24,COc1cc(NC(C)CCCN)c2ncccc2c1.O=P(O)(O)O.O=P(O)(O)O (configuration not stated) [PRIMAQUINE PHOSPHATE],WE: Weak evidence (<10 case reports) of human hepatotoxicity
25,CNS(=O)(=O)Cc1ccc2[nH]cc(CCN(C)C)c2c1,NE: No evidence of hepatotoxicity in any species
26,ClC(Cl)=C(Cl)C(Cl)=C(Cl)Cl [HEXACHLOROBUTADIENE],AH: Evidence for animal hepatotoxicity but not tested in humans
27,NC1CCN(c2c(F)cc3c(=O)c(C(=O)O)cn(C4CC4)c3c2Cl)C1 (configuration not stated) [CLINAFLOXACIN],WE: Weak evidence (<10 case reports) of human hepatotoxicity
